Experimental data published in the supplement of paper PMC13380429.

Legend:
Conditions in all cases: 72 h
Caco-2 [1] = experiment: cell viability relative to DMSO; higher = less toxic
HepG2 [2] = experiment: as above
Vero E6 [3] = experiment: as above
Calu-3 [4] = experiment: as above
U2OS [5] = experiment: as above
Caco-2 [6] = experiment: drug sensitivity score (DSS) for viability; higher = more toxic; extreme values may be limits of the assay
HepG2 [7] = experiment: as above
Vero E6 [8] = experiment: as above
Calu-3 [9] = experiment: as above
U2OS [10] = experiment: as above
HepG2 [11] = experiment: relative viability EC50 (midpoint between 100% and the lowest measured viability); higher = less toxic
Vero E6 [12] = experiment: as above
Calu-3 [13] = experiment: as above
U2OS [14] = experiment: as above

Compound	cell viability (Caco-2 [1]; 1 nM)	cell viability (Caco-2 [1]; 10 nM)	cell viability (Caco-2 [1]; 100 nM)	cell viability (Caco-2 [1]; 1000 nM)	cell viability (Caco-2 [1]; 10000 nM)	cell viability (HepG2 [2]; 1 nM)	cell viability (HepG2 [2]; 10 nM)	cell viability (HepG2 [2]; 100 nM)	cell viability (HepG2 [2]; 1000 nM)	cell viability (HepG2 [2]; 10000 nM)	cell viability (Vero E6 [3]; 1 nM)	cell viability (Vero E6 [3]; 10 nM)	cell viability (Vero E6 [3]; 100 nM)	cell viability (Vero E6 [3]; 1000 nM)	cell viability (Vero E6 [3]; 10000 nM)	cell viability (Calu-3 [4]; 1 nM)	cell viability (Calu-3 [4]; 10 nM)	cell viability (Calu-3 [4]; 100 nM)	cell viability (Calu-3 [4]; 1000 nM)	cell viability (Calu-3 [4]; 10000 nM)	cell viability (U2OS [5]; 1 nM)	cell viability (U2OS [5]; 10 nM)	cell viability (U2OS [5]; 100 nM)	cell viability (U2OS [5]; 1000 nM)	cell viability (U2OS [5]; 10000 nM)	drug sensitivity score (Caco-2 [6])	drug sensitivity score (HepG2 [7])	drug sensitivity score (Vero E6 [8])	drug sensitivity score (Calu-3 [9])	drug sensitivity score (U2OS [10])	relative viability EC50 (HepG2 [11])	relative viability EC50 (Vero E6 [12])	relative viability EC50 (Calu-3 [13])	relative viability EC50 (U2OS [14])
CNC(=O)[C@@H](NC(=O)[C@H](CC(C)C)[C@H](O)C(=O)NO)C(C)(C)C [marimastat]	79.5%	106%	89.9%	99.9%	70.5%	103%	99.7%	121%	106%	113%	108%	103%	100%	104%	90.7%	96.2%	102%	86.4%	87.4%	81.3%	98.7%	100%	92.9%	95.9%	91.5%	1.3	0	0	3.6	0	> 10 µM	> 10 µM	> 10 µM	> 10 µM
CC(=O)c1c(C)c2cnc(Nc3ccc(N4CCNCC4)cn3)nc2n(C2CCCC2)c1=O [palbociclib]	97.1%	90.6%	95.6%	86.2%	50.4%	92.5%	88.5%	80.7%	65.9%	29.4%	97.9%	101%	96.4%	77.3%	26.9%	101%	90.6%	98.4%	85.8%	92.8%	104%	94.8%	98.8%	92.3%	57.3%	4.5	9.7	7.2	0	3.4	0.525 µM	1.4 µM	> 10 µM	
CC[C@@H]([C@H](C)O)n1ncn(-c2ccc(N3CCN(c4ccc(OC[C@@H]5CO[C@@](Cn6cncn6)(c6ccc(F)cc6F)C5)cc4)CC3)cc2)c1=O [posaconazole]	97.6%	99%	94.3%	86.7%	70.2%	97.8%	86.9%	105%	96.6%	27.5%	98.8%	106%	93.4%	92.8%	43.2%	106%	103%	91.5%	92.9%	93%	92.9%	101%	93.7%	90%	93.8%	2.4	4.5	4.3	0	0	2.81 µM	2.13 µM	> 10 µM	> 10 µM
O=C(C=Cc1ccccc1)NC(NC(=S)Nc1ccc(Cl)cc1)C(Cl)(Cl)Cl (configuration not stated) [sal003]	97.6%	96%	101%	91.1%	74.1%	104%	102%	96.2%	99%	19.1%	94.9%	102%	100%	100%	81.2%	106%	99.8%	95.1%	108%	95.6%	98.8%	94.6%	98.2%	93.7%	91.5%	2.2	4.6	0.5	0	0	3.08 µM	> 10 µM	> 10 µM	> 10 µM
CN1CCN(CC/C=C2/c3ccccc3Sc3ccc(S(=O)(=O)N(C)C)cc32)CC1 [thiothixene]	107%	104%	103%	97.5%	71.4%	94.2%	102%	104%	87.6%	73.3%	99.5%	108%	97.2%	91.8%	88.1%	96.4%	102%	119%	104%	77.6%	95.7%	97%	95.6%	99.4%	84.5%	1.6	2.6	0.2	0.6	0.3		> 10 µM	> 10 µM	> 10 µM
C[C@H](NC(=O)/C(C#N)=C/c1ccc(O)c(O)c1)c1ccccc1 [tyrphostin-AG-835]	92.2%	97.2%	90.5%	93.7%	74.6%	109%	90.9%	106%	97.3%	78.9%	98%	90.4%	98.5%	89.6%	89.6%	89.4%	96.8%	109%	97.2%	98.2%	97.2%	98.5%	98.3%	98.3%	91%	1.5	1	0	0	0	> 10 µM	> 10 µM	> 10 µM	> 10 µM
